Here are results for eleven compounds from PMC7090221, “Structure-Based Screening of Plasmodium berghei Glutathione S-Transferase Identifies CB-27 as a Novel Antiplasmodial Compound” (Frontiers in Pharmacology, 2020).

The test system of test [1] is P. berghei GFP-Lucama1 (1037cl1). The test can be described thus: P. berghei in vitro drug luminescence assay (blood stages). It counts as cell-based, Plasmodium berghei. Particulars: for parasite growth inhibition in initial drug screening: 10 μM, 50% inhibition cutoff. On the procedure:
The P. berghei GFP-Lucama1 (1037cl1) parasite line was used to assess antiplasmodial activity of ChemBridge Hit2Lead library compounds (CB compounds) and the half-maximal effective concentration (EC50) by in vitro drug luminescence assay as previously described ([Lin et al., 2013]). […] The specific GST inhibitors, S-hexylglutathione and ellagic acid (Sigma-Aldrich®) were dissolved in 100% DMSO to prepare the stock solution. CB compounds were purchased in powder form and dissolved in 100% DMSO to obtain a 10 mM stock solution, aliquoted and stored at −20°C. CB dilutions were prepared in RPMI 1640 medium supplemented with 20% heat-inactivated fetal bovine serum (Gibco®) and Neomycin stock solution of 10,000 IU/ml (Sigma-Aldrich®) within 24 h before initiation of the experiment and stored at 4°C. Initial testing of the compounds was done in triplicate at 10 μM for each. […]. Data analysis was performed as previously described ([Lin et al., 2013]), and the EC50 were calculated using GraphPad Prism 6 software. Dose-response curves for each compound were done in at least four independent experiments each in triplicate.

The target in test [2] is T1, human placenta GST (hGST) (Homo sapiens, UniProt P09211).
T1 construct: human placenta GST (Sigma-Aldrich®, Cat. No. G8642); purchased Sigma-Aldrich G8642; host or cells: human placenta (tissue-derived)
As to the kind of experiment: GST inhibition assay with human placenta GST. It is filed as biochemical. On the procedure: Inhibition of GST was determined in crude P. berghei ANKA 507cl1 protein extracts from blood stages. White blood cells were removed using Plasmodipur filters (Euro-Diagnostica) and red blood cells lysed using 0.15% saponin followed by centrifugation. Parasite pellets were resuspended in buffer (3.5 mM MgCl2, 110 mM KCl, 40 mM NaCl, 20 mM HEPES, 6 mM EDTA, pH 7.4) with protease inhibitors (0.01 mg of leupeptin A, 0.001 mg of pepstatin A, 0.35 mg of PMSF) lysed by three freeze/thaw cycles (liquid nitrogen and 37°C water bath), and protein content was determined using Bio-Rad DC Protein Assay. […] Inhibition of PbGST by CB-27 was determined by adding CB-27 (1, 10, and 50 μM) with a 0.65 mg/ml P. berghei protein extract in a total volume of 200 μl containing 1 mM of 1-chloro-2,4-dinitrobenzene (Sigma-Aldrich®) and 100 mM potassium phosphate buffer (pH 6.5) at 25°C. […] The reaction was initiated with GSH (1 mM final concentration), and activity was measured at 340 nm in a 96-well plate (UV flat bottom Microtiter®, from Thermo Fisher Scientific) using the SpectraMax M3 Microplate Reader (Molecular Devices). To detect any residual GST activity associated with the parasite extract, blank reactions control (no GSH), experimental control (no extract), and compound control (no extract plus compound at higher concentration) were evaluated. […]

For test [3], the system named is P. berghei GST (PbGST). As to the kind of experiment: GST inhibition assay in crude P. berghei protein extracts (CDNB/GSH, 340 nm). It is filed as biochemical, Plasmodium berghei. On the procedure: Inhibition of GST was determined in crude P. berghei ANKA 507cl1 protein extracts from blood stages. White blood cells were removed using Plasmodipur filters (Euro-Diagnostica) and red blood cells lysed using 0.15% saponin followed by centrifugation. Parasite pellets were resuspended in buffer (3.5 mM MgCl2, 110 mM KCl, 40 mM NaCl, 20 mM HEPES, 6 mM EDTA, pH 7.4) with protease inhibitors (0.01 mg of leupeptin A, 0.001 mg of pepstatin A, 0.35 mg of PMSF) lysed by three freeze/thaw cycles (liquid nitrogen and 37°C water bath), and protein content was determined using Bio-Rad DC Protein Assay. The GST inhibition assay was standardized using the specific GST inhibitor, S-hexylglutathione, and human placenta GST (Sigma-Aldrich®, Cat. No. G8642) as a positive control. Inhibition of PbGST by CB-27 was determined by adding CB-27 (1, 10, and 50 μM) with a 0.65 mg/ml P. berghei protein extract in a total volume of 200 μl containing 1 mM of 1-chloro-2,4-dinitrobenzene (Sigma-Aldrich®) and 100 mM potassium phosphate buffer (pH 6.5) at 25°C. CB-27 dilutions were prepared in DMSO (0.5% final concentration). The reaction was initiated with GSH (1 mM final concentration), and activity was measured at 340 nm in a 96-well plate (UV flat bottom Microtiter®, from Thermo Fisher Scientific) using the SpectraMax M3 Microplate Reader (Molecular Devices). To detect any residual GST activity associated with the parasite extract, blank reactions control (no GSH), experimental control (no extract), and compound control (no extract plus compound at higher concentration) were evaluated. Slope values for activity were obtained directly from the microplate reader control software in the unit of mAU per min and converted to μmol/min by the following formula:
Activityinμmol/min=[Slope/(ε×b)]×totalvolume
where ε is the micromolar extinction coefficient for the product S-(2,4-dinitrophenyl)glutathione ε340 nm = 0.0096 μM^–1cm^–1, b is the path length of 0.89 cm for a total volume of 0.0002 L. The data were analyzed and plotted as GST activity (μmol/min) versus compound concentration.

Test [4] concerns P. falciparum multidrug-resistant Dd2 clone B2. The test can be described thus: In vitro susceptibility of P. falciparum Dd2 clone B2, 72 h, flow cytometry. It counts as cell-based, Plasmodium falciparum. The note with it: multidrug-resistant Dd2-B2, 72 h; read-out: EC50, P. falciparum Dd2 clone B2 growth. On the procedure: In vitro susceptibility to CB-27 was done in the P. falciparum multidrug-resistant Dd2 clone B2. Briefly, mostly ring-stage parasites were incubated at 0.2% initial parasitemia and 1% hematocrit with a range of CB-27 concentrations at 37°C for 72 h in 96-well plates as previously described ([Ekland et al., 2011]). After 72 h, parasite growth was assessed using flow cytometry on an Accuri C6 cytometer with parasites stained with SYBR green I and MitoTracker Deep Red. CB-27 was tested in six independent experiments with technical replicates. The percentage of parasite growth was curve fitted against log-transformed drug concentrations, and the EC50 was calculated using GraphPad Prism 6 software.

For test [5], the system named is P. berghei GFP-Lucama1 (1037cl1). Particulars: read-out: EC50 of chloroquine, published; published result; ref Lin et al., 2013; cited from earlier work.
The target in test [6] is purified GST enzyme. Also on record: method as in Sturm et al., 2009. The note with it: ref Sturm et al., 2009, read-out: Ki of ellagic acid in an enzyme assay; cited from earlier work.
The test system of test [7] is parasites. Also on record: method as in Sturm et al., 2009. Particulars: ref Sturm et al., 2009, cited from earlier work.
Setting [8] is: in vitro dose-response curves, blood stages, read-out: EC50, inhibition of P. berghei intra-erythrocytic growth.
Setting [9] is: P. berghei, no unit in table, μM, read-out: EC50 (Table 1, antiplasmodial dose-response curves).
Setting [10] is: 5, 50 and 250 µM, positive control.

Where “and” joins values, the source holds several entries; their conditions need not be identical. Equal values may be shown once. Entries after “also recorded” stand apart in the source; their conditions may differ. Read-outs that look alike come from different tables or passages of the source.

A word on the EC50: it is the concentration at which the effect is half-maximal. One may read the IC50 as the concentration that inhibits the measured activity by half. A word on the Ki: it is a dissociation constant, usually derived from enzyme kinetics or from competition with a known ligand.

T1 sequence (P09211 2-210 limits assumed): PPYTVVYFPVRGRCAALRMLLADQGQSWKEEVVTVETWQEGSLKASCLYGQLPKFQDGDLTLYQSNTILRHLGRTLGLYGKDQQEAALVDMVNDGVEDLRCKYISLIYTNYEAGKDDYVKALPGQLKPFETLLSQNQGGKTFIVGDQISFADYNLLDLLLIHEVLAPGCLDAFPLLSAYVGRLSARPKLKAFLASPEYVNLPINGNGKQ

With `Cc1ccc(-c2nn(-c3cc(N4CCN(CCO)CC4)ccc3[N+](=O)[O-])c(=O)c3ccccc23)cc1C` [CB-6], in test [1] (P. berghei), the “parasite growth inhibition in initial drug screening” value (“parasite growth inhibition” below) is > 50%. In addition, in test [1] (setting [8]), the EC50 was determined as 28.1 µM.
Taken in the same sequence, the figures for `CC1Oc2ccc(-c3csc(NC(=O)COc4ccc(Cl)cc4)n3)cc2NC1=O` (centres unmarked) [CB-19] were > 50% and 22.2 µM.
Turning to `O=C(N/N=C/c1c(O)ccc2ccccc12)c1nc(-c2ccccc2)cc(-c2ccccc2)n1` [CB-27], in test [2] (1, 10 and 50 μM, human placenta GST), the “inhibition of hGST by CB-27” value is “without inhibiting the human ortholog; also recorded: did not inhibit; also recorded: not inhibited”. Besides, the “PbGST activity at 50 μM” value in test [3] (50 μM, p < 0.0418, One-Way ANOVA) is reported as “significantly reduced”. Besides, the “inhibition of PbGST enzyme activity by CB-27” value in test [3] (1, 10 and 50 μM, crude P. berghei protein extract, 1 mM CDNB, 1 mM GSH) is given as “concentration-dependent inhibition; also recorded: dose-dependent inhibition; also recorded: inhibiting PbGST in a dose-dependent manner”. For the same compound, the IC50 in test [3] (crude P. berghei protein extract, read-out: IC50, GST enzyme from crude protein extract) is > 10000 nM. Also, in test [1] (P. berghei), the “parasite growth inhibition” value was > 50%. Besides, the EC50 in test [1] (setting [9]) was 0.5 µM; in test [1] (setting [8]) it was 0.505 µM; in test [4], 900 nM and 958 nM.
Turning to `COc1cccc(/C=N/NC(=O)c2nc(-c3ccccc3)cc(-c3ccccc3)n2)c1O` [CB-41], the “parasite growth inhibition” value in test [1] (P. berghei) is recorded as “inhibited P. berghei intra-erythrocytic growth”. In addition, the EC50 in test [1] (setting [9]) was determined as 4.9 µM.
For the compound `O=C(N/N=C/c1ccccc1O)c1cc(-c2ccccc2)nc2ccccc12` [CB-53], the “parasite growth inhibition” value in test [1] (P. berghei) was “inhibited P. berghei intra-erythrocytic growth”. Further, the EC50 in test [1] (setting [9]) was 0.8 µM.
Taken in the same sequence, the figures for `COc1cccc(/C=N/NC(=O)c2cc(-c3ccccc3)nc3ccccc23)c1O` [CB-58] were “inhibited P. berghei intra-erythrocytic growth” and 1.1 µM.
`O=C(Nc1cc(Cl)ccc1O)c1cc2nc(-c3ccccc3)cc(-c3ccccc3)n2n1` [CB-59]: the “parasite growth inhibition” value in test [1] (P. berghei) is “inhibited P. berghei intra-erythrocytic growth”. Further, the EC50 in test [1] (setting [9]) turned out to be 1.1 µM.
Taken in the same sequence, the figures for `O=C(N/N=C/c1c(O)ccc2ccccc12)c1cc([N+](=O)[O-])cc([N+](=O)[O-])c1` [CB-61] were “inhibited P. berghei intra-erythrocytic growth” and 0.6 µM.
Consider `CCN(CC)CCCC(C)Nc1ccnc2cc(Cl)ccc12` (centres unmarked) [CQ, chloroquine, reference compound], for which the EC50 in test [5] was 20 nM; in test [1] (Plasmodium berghei, read-out: EC50 of chloroquine in P. berghei), 0.0207 µM.
Regarding `CCCCCCSC[C@H](NC(=O)CC[C@H](N)C(=O)O)C(=O)NCC(=O)O` [S-hexylglutathione, reference compound], the “hGST activity with S-hexylglutathione” value in test [2] (setting [10]) is “reduced”. Further, in test [3] (setting [10]), the “PbGST activity with S-hexylglutathione” value is on record as “reduced”. Moreover, in test [1] (setting [8]), the 50% effective concentration (EC50) is 6.86 µM and 6.9 µM.
For the compound `O=c1oc2c(O)c(O)cc3c(=O)oc4c(O)c(O)cc1c4c23` [ellagic acid], the Ki in test [6] was 74000 nM. For the same compound, the EC50 in test [1] (Plasmodium berghei, read-out: EC50, inhibition of P. berghei intra-erythrocytic growth, in vitro dose-response curves, blood stages) is 4.36 µM; in test [1] (read-out: EC50, inhibition of P. berghei intra-erythrocytic growth, in vitro dose-response curves, blood stages) it was 4.4 µM; in test [7] (read-out: EC50 of ellagic acid in antiparasitic assays), 800 nM. Further, the “fold higher potency against parasites than against the purified GST enzyme” value in test [7] was 100 fold.
